According to US10258694B2, “Skin external preparation and skin irritation-reducing method” (priority 2014, dated 2019):

Tested on: three-dimensional skin model (EPI-212SIT)
Experiment: Irritation test using three-dimensional skin model, MTT relative viability (Test Example 1-5)
Assay type: cell-based
Details: 60 min exposure, 42 h post-incubation, 0.5 and 1.0 mass % pitavastatin calcium, powder
Procedure: The following <5-A> to <5-G> were used as test materials to perform exposure of the epidermis to the test materials and irritation evaluation in the following manner in accordance with OECD TG439 (In Vitro skin irritation test) using a kit for skin irritation test approved by OECD (EPI-212SIT manufactured by KURABO).
The epidermis in the kit was pre-incubated overnight, and then 30 μL of the test material was added to the stratum corneum side of the epidermis, and a nylon mesh was placed with tweezers to expose the stratum corneum to the test material. When the test material was solid (<5-E> described below), 25 μL of DPBS was added to the stratum corneum, and immediately after that, 25 mg of the solid material was added to the stratum corneum to expose the stratum corneum to the test material. After 60 minutes, the test material was completely removed by washing. Then, post-incubation was performed for 42 hours. In the process of the post-incubation, a culture medium was replaced once after a lapse of 24 hours. After the post-incubation, a reaction with an MTT solution was performed for 3 hours using an MTT assay kit (MTT-100-JP manufactured by KURABO), and a formazan dye produced by mitochondrial metabolism was extracted to measure the OD value. Based on the measurement result, relative viability was calculated by comparison with a negative control (<5-G> described below).

**Q.** For `O=C([O-])C[C@H](O)C[C@H](O)/C=C/c1c(C2CC2)nc2ccccc2c1-c1ccc(F)cc1.O=C([O-])C[C@H](O)C[C@H](O)/C=C/c1c(C2CC2)nc2ccccc2c1-c1ccc(F)cc1.[Ca+2]` [pitavastatin calcium], which “relative viability (vs negative control DPBS)” value is on record?
**A.** reduced in a manner dependent on the concentration
